Work on `O=C1Cc2cc(F)ccc2N1` yielded a solubility (mole fraction) (in DMF, 278.15 K) of 0.226, a solubility (mole fraction) (in DMF, 283.15 K) of 0.239 and a solubility (mole fraction) (in DMF, 288.15 K) of 0.253. For the same compound, the solubility (mole fraction) (in DMF, 293.15 K) was 0.27, the solubility (mole fraction) (in DMF, 298.15 K) was 0.289 and the solubility (mole fraction) (in DMF, 303.15 K) was 0.309. The solubility (mole fraction) (in DMF, 308.15 K) was 0.331, the solubility (mole fraction) (in DMF, 313.15 K) was 0.357 and the solubility (mole fraction) (in DMF, 318.15 K) was 0.384. The solubility (mole fraction) (in DMF, 323.15 K) was 0.419, the solubility (mole fraction) (in THF, 278.15 K) was 0.0838 and the solubility (mole fraction) (in THF, 283.15 K) was 0.0938. The solubility (mole fraction) (in THF, 288.15 K) was 0.104, the solubility (mole fraction) (in THF, 293.15 K) was 0.115 and the solubility (mole fraction) (in THF, 298.15 K) was 0.129. For the same compound, the solubility (mole fraction) (in THF, 303.15 K) was 0.144, the solubility (mole fraction) (in THF, 308.15 K) was 0.162 and the solubility (mole fraction) (in THF, 313.15 K) was 0.183. For the same compound, the solubility (mole fraction) (in THF, 318.15 K) was 0.209, the solubility (mole fraction) (in THF, 323.15 K) was 0.237 and the solubility (mole fraction) (in acetone, 278.15 K) was 0.0551. For the same compound, the solubility (mole fraction) (in acetone, 283.15 K) was 0.0618, the solubility (mole fraction) (in acetone, 288.15 K) was 0.0678 and the solubility (mole fraction) (in acetone, 293.15 K) was 0.0764. The solubility (mole fraction) (in acetone, 298.15 K) was 0.085, the solubility (mole fraction) (in acetone, 303.15 K) was 0.096 and the solubility (mole fraction) (in acetone, 308.15 K) was 0.108. The solubility (mole fraction) (in acetone, 313.15 K) was 0.123, the solubility (mole fraction) (in acetone, 318.15 K) was 0.14 and the solubility (mole fraction) (in acetone, 323.15 K) was 0.16. For the same compound, the solubility (mole fraction) (in acetonitrile, 278.15 K) was 0.02, the solubility (mole fraction) (in acetonitrile, 283.15 K) was 0.0227 and the solubility (mole fraction) (in acetonitrile, 288.15 K) was 0.0261. For the same compound, the solubility (mole fraction) (in acetonitrile, 293.15 K) was 0.03, the solubility (mole fraction) (in acetonitrile, 298.15 K) was 0.0344 and the solubility (mole fraction) (in acetonitrile, 303.15 K) was 0.0399. For the same compound, the solubility (mole fraction) (in acetonitrile, 308.15 K) was 0.0463, the solubility (mole fraction) (in acetonitrile, 313.15 K) was 0.0537 and the solubility (mole fraction) (in acetonitrile, 318.15 K) was 0.0632. It also gave a solubility (mole fraction) (in acetonitrile, 323.15 K) of 0.0748, a solubility (mole fraction) (in ethyl acetate, 278.15 K) of 0.0149 and a solubility (mole fraction) (in ethyl acetate, 283.15 K) of 0.0165. For the same compound, the solubility (mole fraction) (in ethyl acetate, 288.15 K) was 0.0185, the solubility (mole fraction) (in ethyl acetate, 293.15 K) was 0.0206 and the solubility (mole fraction) (in ethyl acetate, 298.15 K) was 0.0234. It also gave a solubility (mole fraction) (in ethyl acetate, 303.15 K) of 0.0265, a solubility (mole fraction) (in ethyl acetate, 308.15 K) of 0.03 and a solubility (mole fraction) (in ethyl acetate, 313.15 K) of 0.0343. For the same compound, the solubility (mole fraction) (in ethyl acetate, 318.15 K) was 0.0394, the solubility (mole fraction) (in ethyl acetate, 323.15 K) was 0.0459 and the solubility (mole fraction) (in isopropanol, 278.15 K) was 0.0197. It also gave a solubility (mole fraction) (in isopropanol, 283.15 K) of 0.0225, a solubility (mole fraction) (in isopropanol, 288.15 K) of 0.0263 and a solubility (mole fraction) (in isopropanol, 293.15 K) of 0.0309. The solubility (mole fraction) (in isopropanol, 298.15 K) was 0.0367, the solubility (mole fraction) (in isopropanol, 303.15 K) was 0.0436 and the solubility (mole fraction) (in isopropanol, 308.15 K) was 0.0506. It also gave a solubility (mole fraction) (in isopropanol, 313.15 K) of 0.0601, a solubility (mole fraction) (in isopropanol, 318.15 K) of 0.0717 and a solubility (mole fraction) (in isopropanol, 323.15 K) of 0.0857. It also gave a solubility (mole fraction) (in methanol, 278.15 K) of 0.0247, a solubility (mole fraction) (in methanol, 283.15 K) of 0.0296 and a solubility (mole fraction) (in methanol, 288.15 K) of 0.0358. The solubility (mole fraction) (in methanol, 293.15 K) was 0.0422, the solubility (mole fraction) (in methanol, 298.15 K) was 0.0504 and the solubility (mole fraction) (in methanol, 303.15 K) was 0.0594. The solubility (mole fraction) (in methanol, 308.15 K) was 0.0704, the solubility (mole fraction) (in methanol, 313.15 K) was 0.0841 and the solubility (mole fraction) (in methanol, 318.15 K) was 0.0998. It also gave a solubility (mole fraction) (in methanol, 323.15 K) of 0.12, a solubility (mole fraction) (in n-hexane, 278.15 K) of 0.000387 and a solubility (mole fraction) (in n-hexane, 283.15 K) of 0.000492. For the same compound, the solubility (mole fraction) (in n-hexane, 288.15 K) was 0.000623, the solubility (mole fraction) (in n-hexane, 293.15 K) was 0.000784 and the solubility (mole fraction) (in n-hexane, 298.15 K) was 0.000984. It also gave a solubility (mole fraction) (in n-hexane, 303.15 K) of 0.00125, a solubility (mole fraction) (in n-hexane, 308.15 K) of 0.00153 and a solubility (mole fraction) (in n-hexane, 313.15 K) of 0.00196. For the same compound, the solubility (mole fraction) (in n-hexane, 318.15 K) was 0.00247, the solubility (mole fraction) (in n-hexane, 323.15 K) was 0.00311 and the solubility (mole fraction) (in n-propanol, 278.15 K) was 0.0293. It also gave a solubility (mole fraction) (in n-propanol, 283.15 K) of 0.0336, a solubility (mole fraction) (in n-propanol, 288.15 K) of 0.0388 and a solubility (mole fraction) (in n-propanol, 293.15 K) of 0.0445. The solubility (mole fraction) (in n-propanol, 298.15 K) was 0.0513, the solubility (mole fraction) (in n-propanol, 303.15 K) was 0.0598 and the solubility (mole fraction) (in n-propanol, 308.15 K) was 0.0688. The solubility (mole fraction) (in n-propanol, 313.15 K) was 0.0798, the solubility (mole fraction) (in n-propanol, 318.15 K) was 0.093 and the solubility (mole fraction) (in n-propanol, 323.15 K) was 0.11.

— BigSolDB 2.1
